Where two headings read alike, the source gives them in different places.

We go through 7 compounds from patent US5840895A, “Triazole intermediates for tricyclic benzazepine and benzothiazepine derivatives” (Meiji Seika Kabushiki Kaisha, priority 1993, dated 1998).

For experiment [1], the system named is allergic edema reaction at paw. Briefly: Test for suppressing immediate and delayed allergic reaction (allergic edema reaction at paw, DNP-OA). It counts as in vivo, rat (male Wister). To be noted: Rattus norvegicus; for inhibition in vivo at 10 mg/kg: oral. How it is done:
Test for suppressing immediate and delayed allergic reaction
1×10^10 of inviable pertussis and 1 mg of dinitrophenylated ovalbumin (DNP-OA) were administered subcutaneously to the three paws except the right hind paw of male Wister rats having a body weight of 200 g. After 10 days, 5 μg of DNP-OA was further administered subcutaneously to the right hind paw of the animals to induce the allergic edema reaction at paw. The allergy suppressing effect of the test compounds was examined with reference to the edema volumes after 30 minutes and 8 hours of the induction of the allergic reaction as the immediate and delayed allergic reactions, respectively.
[…] On the other hand, only a solution of 0.25% Tween 80 was orally administered to rats as the untreated control, and 100 mg/kg of sodium chromoglycate subcutaneously or orally to rats as the positive control.
The rate of suppressing the allergic edema reaction at paw was calculated from the following equation.
Suppression rate of the allergic edema reaction at paw
A is an average edema volume in the control, and
B is an average edema volume in the drug treated group.

The conditions of experiment [2]: cited from earlier work.
In experiment [3] the test system is histamine releasing reaction. Briefly: Test of suppressing histamine releasing reaction (abdominal cavity cells of rats sensitised with anti-DNP-As serum, stimulated with DNP-As). To be noted: Rattus norvegicus; cells 10^5 cell/ml stimulated with 1 μg/ml DNP-As; test compounds 10^-5 -10^-10 M; read-out: IC50 (suppression of histamine releasing reaction). It is filed as cell-based, rat (male Wister). How it is done:
Test of suppressing histamine releasing reaction
Rat anti-dinitrophenylated ascaris protein (referred to hereinafter as DNP-As) serum was prepared according to the method described by Tada, T. and Okumura, K., J. Immun., 106 (4), 1971. Briefly, 1×10^10 of inviable pertussis and 1 mg of DNP-As were administered subcutaneously to the paw of female Brown Norway rats having a body weight of 200 g. After five days, 0.5 mg of DNP-As was further administered intramuscularly to the rear of the animals. Blood samples were taken after three days of the administration to prepare anti-serum.
A 1 ml portion of the serum diluted four times with physiological saline was administered intraperitoneally to male Wister rats. After two days, abdominal cavity was rinsed with phosphate buffer to recover the cells within the abdominal cavity. After the cell concentration was adjusted to 10^5 cell/ml, the cells were stimulated with 1 μg/ml of DNP-As. The amount of histamine released into the supernatant was measured according to the method described by Shore, P. A., Burkhalter, A. H. and Chon, V. H. Jr., J. Pharm. Exp. Ther., 127, 182-186 (1959).
A dose for suppressing 50% of the histamine releasing reaction, i.e., IC50 value, was calculated from the amounts of histamine released in the group treated with the test compounds in the molar concentrations (M) of 10^-5 -10^-10 and in the control group. The IC50 value as the suppressing effect of the drugs is shown in Table 6 with the IC50 value of sodium chromoglycic acid selected as the control compound.

Where [4] appears, read: 0.5 h, edema volume 30 minutes after induction, read-out: Suppressing Rate, Immediate Reaction.
Setting [5] is: edema volume 8 hours after induction, read-out: Suppressing Rate, Slow reaction.

For `O=C(O)c1cc(=O)c2c(OCC(O)COc3cccc4oc(C(=O)O)cc(=O)c34)cccc2o1` [DSCG, sodium chromoglycate, reference compound], the inhibition in vivo at 100 mg/kg was found to be 16% in experiment [1] (po, 0.5 h, orally, 30 minutes after induction (positive control), read-out: Suppressing Rate, Immediate Reaction); 20% in experiment [1] (po, orally, 8 hours after induction (positive control), read-out: Suppressing Rate, Slow reaction); 75% in experiment [1] (sc, 0.5 h, subcutaneously, 30 minutes after induction (positive control), read-out: Suppressing Rate, Immediate Reaction); 53% in experiment [1] (sc, subcutaneously, 8 hours after induction (positive control), read-out: Suppressing Rate, Slow reaction). Moreover, the “effectiveness on oral administration” value in experiment [2] is given as “no effectiveness”.

The term IC50 denotes the concentration needed to halve the response being measured. In the case of `COC(=O)/C=C/c1ccc2c(=O)c3[nH]nnc3c(=O)[nH]c2c1` [Example 16, 7-(2-methoxycarbonyl-(E)-ethenyl)-4(5H),10-dioxo-1H-1,2,3-triazolo[4,5-c][l]benzazepine], the inhibition in vivo at 10 mg/kg was 79% in experiment [1] (setting [4]) and 80% in experiment [1] (setting [5]). The IC50 in experiment [3] stood at 2.6 nM.

Turning to `CC(=O)/C=C/c1ccc2c(=O)c3[nH]nnc3c(=O)[nH]c2c1` [Example 20, 7-(3-oxo-(E)-butenyl)-4(5H),10-dioxo-1H-1,2,3-triazolo[4,5-c][l]benzazepine], the results for the inhibition in vivo at 10 mg/kg in experiment [1] (setting [4]) and in experiment [1] (setting [5]) were 63% and 51%, respectively. For the same compound, the IC50 in experiment [3] is 2.9 nM.

Take `CCOc1ccc2c(=O)c3[nH]nnc3c(=O)[nH]c2c1` [Example 27, 7-ethoxy-4(5H),10-dioxo-1H-1,2,3-triazolo[4,5-c][l]benzazepine]: the inhibition in vivo at 10 mg/kg in experiment [1] (setting [4]) is 48%; in experiment [1] (setting [5]) it was 55%. In addition, the IC50 in experiment [3] came out at 8.6 nM.

On to `COc1cc2[nH]c(=O)c3nn[nH]c3c(=O)c2cc1OC` [Example 43, 7,8-dimethoxy-4(5H),10-dioxo-1H-1,2,3-triazolo[4,5-c][l]benzazepine], for which the values for the inhibition in vivo at 10 mg/kg in experiment [1] (setting [4]) and in experiment [1] (setting [5]) were 59% and 53%, respectively. For the same compound, the IC50 in experiment [3] amounted to 1.4 nM.

In the case of `O=c1[nH]c2cc(CNS(=O)(=O)c3ccccc3)ccc2c(=O)c2[nH]nnc12` [Example 69, 7-(N-benzenesulfonylaminomethyl)-4(5H),10-dioxo-1H-1,2,3-triazolo [4,5-c][l]benzazepine], the inhibition in vivo at 10 mg/kg came to 50% in experiment [1] (setting [4]) and 41% in experiment [1] (setting [5]). Moreover, in experiment [3], the IC50 amounted to 3.5 nM.

As for `COc1ccc(C(=O)COc2ccc3[nH]c(=O)c4nn[nH]c4c(=O)c3c2)cc1` [Example 84, 8-(4-methoxyphenacyloxy)-4(5H),10-dioxo-1H-1,2,3-triazolo[4,5-c][l]benzazepine], the inhibition in vivo at 10 mg/kg in experiment [1] (setting [4]) was found to be 48%; in experiment [1] (setting [5]) it was 40%. In addition, the IC50 in experiment [3] came to 3.9 nM.
